Measurements: patent US20240390417A1, “MNO NANOMATERIAL BASED INHIBITORS OF INFLAMMATION AND SARS-COV-2 VIRAL REPLICATION” (Duke University, priority 2015, published 2024)

Legend:
4T1 tumor-bearing mice = experiment: PTT-induced inflammation, 4T1 metastasis tumor model; settings: intravenous three times per week
Experimental: The fluorescent signal intensity was recorded on the IVIS® instrument at different time intervals.
The ability of the MnO and MnO@Cucumin nanoparticles to mitigate the PTT-induced inflammatory response was examined on 4T1 tumor-bearing mice. […] The 4T1 tumor-bearing mice received photothermal therapy first, and then were further treated with different formulations by intravenous injection three times per week.

calf thymus DNA = experiment: PicoGreen DNA-binding assay; settings: TE buffer, unbound PicoGreen-labeled DNA
Experimental: The fluorescence intensity of the unbound Picogreen®-DNA complex at 520 nm was measured with a multiwell plate reader via excitation at 490 nm.
Inflammatory circulating cfDNA released by PTT-damaged host cells might cause a severe inflammatory response, which may be mitigated by the scavenging of cfDNA. Therefore, to interrogate the cfDNA scavenging ability of the various nanoparticles, the inventors investigated the calf thymus DNA binding affinity of the nanoparticles in Tris-EDTA (TE) buffer with and without 10% FBS by measuring unbound PicoGreen®-labeled DNA (FIGS. 5C and 5D).

SMILES | body weight (4T1 tumor-bearing mice; after laser (PTT)) | tumor recurrence and metastasis (4T1 tumor-bearing mice; after laser (PTT)) | effect on body weight of the mice (4T1 tumor-bearing mice; without laser) | effect on size of the tumors (4T1 tumor-bearing mice; without laser) | DNA binding affinity (calf thymus DNA)
COc1cc(/C=C/C(=O)CC(=O)/C=C/c2ccc(O)c(OC)c2)ccc1O [curcumin] | increased body weight | inhibited tumor recurrence and metastasis | did not show obvious effects | did not show obvious effects | negligible DNA binding ability
O=C(OC[C@H]1O[C@@H](OC(=O)c2cc(O)c(O)c(OC(=O)c3cc(O)c(O)c(O)c3)c2)[C@H](OC(=O)c2cc(O)c(O)c(OC(=O)c3cc(O)c(O)c(O)c3)c2)[C@@H](OC(=O)c2cc(O)c(O)c(OC(=O)c3cc(O)c(O)c(O)c3)c2)[C@@H]1OC(=O)c1cc(O)c(O)c(OC(=O)c2cc(O)c(O)c(O)c2)c1)c1cc(O)c(O)c(OC(=O)c2cc(O)c(O)c(O)c2)c1 [tannic acid] | – | – | – | – | can bind to DNA
